Structures are written as SMILES. “Also recorded” adds a separate entry of the source. Where a name gives a salt, the structure may show the parent alone.

The test system of one data set is caspase 3. As to the kind of experiment: Caspase 3 activity in brain tissues. In kind it is in vivo, mouse. The following applies: 3 and 72 hours after 20 mg/kg ADR; hydrochloride.
A further data set deals with cytochrome c. Nature of the data set: Cytochrome c release from mitochondria to cytosol (Western blot). In kind it is in vivo, mouse. The following applies: brain tissue 3 hours after ADR. On the procedure: Western blot analyses of cytochrome c and succinate dehydrogenase or β-actin were determined in mitochondrial or cytosolic fractions isolated from brain tissues 3 hours after mice were treated with ADR, and anti-TNF antibody immediately followed by ADR, and anti-TNF antibody, IgG, or saline as controls. Cytochrome c was decreased in mitochondria (*P<0.01) but increased cytosol after treatment with ADR or IgG followed by ADR. Succinate dehydrogenase or β-actin were used to normalize for protein loading. The Western blots shown a re a representative set of data of n=3 separate sets from individual animals. Quantification of all the data
In general terms: A western blot detects proteins with antibodies after separation by electrophoresis.

As for `COc1cccc2c1C(=O)c1c(O)c3c(c(O)c1C2=O)C[C@@](O)(C(=O)CO)C[C@@H]3O[C@H]1C[C@H](N)[C@H](O)[C@H](C)O1` [ADR, Doxorubicin hydrochloride], the “Caspase 3 activity in brain tissues” value in the data set on caspase 3 was “significantly increased; also recorded: increased at 72 hours compared with 3 hours”. In the data set with cytochrome c, the “Cytochrome c in cytosolic fraction” value is “increased” and the “Cytochrome c in mitochondrial fraction” value is reported as “decreased”.

For the origin of these results see patent US20080131432A1, “Method of treating the chemotoxic effects of chemotherapeutic drugs on brain tissue” (University of Kentucky Research Foundation, priority 2005, published 2008).
